Literature values as cited in PubChem BioAssay AID1259409 (Chemical Carcinogenesis Research Information System (CCRIS), 2018).

Tested on: rodent chemically induced tumor inhibition, incidence and multiplicity
Test: CCRIS tumor inhibitor studies
Conditions: Species: RAT, Strain/Sex: F344/MALE

Compound: O=P(O)(O)OC1C(OP(=O)(O)O)C(OP(=O)(O)O)C(OP(=O)(O)O)C(OP(=O)(O)O)C1OP(=O)(O)O (stereo not given)
- tumour outcome (control, treated, inhibition, significance) (Carcinogen: 2,2'-DIHYDROXY-DI-N-PROPYLNITROSAMINE [621-64-7], N-ETHYL-N-HYDROXYETHYLNITROSAMINE [13147-25-6], 3,2'-DIMETHYL-4-AMINOB, Carcinogen: 2,2'-DIHYDROXY-DI-N-PROPYLNITROSAMINE [621-64-7], N-ETHYL-N-HYDROXYETHYLNITROSAMINE [13147-25-6], 3,2'-DIMETHYL-4-AMINOB, Dose [Inhibitor]: 2% IN DIET FOR 32 WK BEGINNING 1 WK POST LAST CARCINOGEN DOSE (STUDY DURATION: 32 WK), Route [Inhibitor]: ORAL, Target Tissue: Type of Lesion: LIVER: ADENOMA, Dose [Carcinogen]: 1000 MG/KG BW DHPN IP 2X/3 WK, 1500 MG/KG BW EHEN IP 2X/3 WK, 75 MG/KG BW DMAB SC 3X/3 WK;, Dose [Carcinogen]: 1000 MG/KG BW DHPN IP 2X/3 WK, 1500 MG/KG BW EHEN IP 2X/3 WK, 75 MG/KG BW DMAB SC 3X/3 WK;, Promoter: NONE): 9/14 (64%), 5/12 (42%), 34%, p<0.01
- tumour outcome (control, treated, inhibition, significance) (Carcinogen: 2,2'-DIHYDROXY-DI-N-PROPYLNITROSAMINE [621-64-7], N-ETHYL-N-HYDROXYETHYLNITROSAMINE [13147-25-6], 3,2'-DIMETHYL-4-AMINOB, Carcinogen: 2,2'-DIHYDROXY-DI-N-PROPYLNITROSAMINE [621-64-7], N-ETHYL-N-HYDROXYETHYLNITROSAMINE [13147-25-6], 3,2'-DIMETHYL-4-AMINOB, Dose [Inhibitor]: 2% IN DIET FOR 32 WK BEGINNING 1 WK POST LAST CARCINOGEN DOSE (STUDY DURATION: 32 WK), Route [Inhibitor]: ORAL, Target Tissue: Type of Lesion: LIVER: CARCINOMA, Dose [Carcinogen]: 1000 MG/KG BW DHPN IP 2X/3 WK, 1500 MG/KG BW EHEN IP 2X/3 WK, 75 MG/KG BW DMAB SC 3X/3 WK;, Dose [Carcinogen]: 1000 MG/KG BW DHPN IP 2X/3 WK, 1500 MG/KG BW EHEN IP 2X/3 WK, 75 MG/KG BW DMAB SC 3X/3 WK;, Promoter: NONE): 6/14 (43%), 1/12 (8%), 81%, not significant
- tumour outcome (control, treated, inhibition, significance) (Carcinogen: 2,2'-DIHYDROXY-DI-N-PROPYLNITROSAMINE [621-64-7], N-ETHYL-N-HYDROXYETHYLNITROSAMINE [13147-25-6], 3,2'-DIMETHYL-4-AMINOB, Carcinogen: 2,2'-DIHYDROXY-DI-N-PROPYLNITROSAMINE [621-64-7], N-ETHYL-N-HYDROXYETHYLNITROSAMINE [13147-25-6], 3,2'-DIMETHYL-4-AMINOB, Dose [Inhibitor]: 2% IN DIET FOR 32 WK BEGINNING 1 WK POST LAST CARCINOGEN DOSE (STUDY DURATION: 32 WK), Route [Inhibitor]: ORAL, Target Tissue: Type of Lesion: LUNG: ADENOMA, Dose [Carcinogen]: 1000 MG/KG BW DHPN IP 2X/3 WK, 1500 MG/KG BW EHEN IP 2X/3 WK, 75 MG/KG BW DMAB SC 3X/3 WK;, Dose [Carcinogen]: 1000 MG/KG BW DHPN IP 2X/3 WK, 1500 MG/KG BW EHEN IP 2X/3 WK, 75 MG/KG BW DMAB SC 3X/3 WK;, Promoter: NONE): 7/14 (50%), 9/12 (75%), -50%, not significant
- tumour outcome (control, treated, inhibition, significance) (Carcinogen: 2,2'-DIHYDROXY-DI-N-PROPYLNITROSAMINE [621-64-7], N-ETHYL-N-HYDROXYETHYLNITROSAMINE [13147-25-6], 3,2'-DIMETHYL-4-AMINOB, Carcinogen: 2,2'-DIHYDROXY-DI-N-PROPYLNITROSAMINE [621-64-7], N-ETHYL-N-HYDROXYETHYLNITROSAMINE [13147-25-6], 3,2'-DIMETHYL-4-AMINOB, Dose [Inhibitor]: 2% IN DIET FOR 32 WK BEGINNING 1 WK POST LAST CARCINOGEN DOSE (STUDY DURATION: 32 WK), Route [Inhibitor]: ORAL, Target Tissue: Type of Lesion: URINARY BLADDER: CARCINOMA, Dose [Carcinogen]: 1000 MG/KG BW DHPN IP 2X/3 WK, 1500 MG/KG BW EHEN IP 2X/3 WK, 75 MG/KG BW DMAB SC 3X/3 WK;, Dose [Carcinogen]: 1000 MG/KG BW DHPN IP 2X/3 WK, 1500 MG/KG BW EHEN IP 2X/3 WK, 75 MG/KG BW DMAB SC 3X/3 WK;, Promoter: NONE): 1/14 (7%), 4/12 (33%), -371%, not significant
- outcome (Carcinogen: 2,2'-DIHYDROXY-DI-N-PROPYLNITROSAMINE [621-64-7], N-ETHYL-N-HYDROXYETHYLNITROSAMINE [13147-25-6], 3,2'-DIMETHYL-4-AMINOB, Carcinogen: 2,2'-DIHYDROXY-DI-N-PROPYLNITROSAMINE [621-64-7], N-ETHYL-N-HYDROXYETHYLNITROSAMINE [13147-25-6], 3,2'-DIMETHYL-4-AMINOB, Dose [Inhibitor]: 2% IN DIET FOR 32 WK BEGINNING 1 WK POST LAST CARCINOGEN DOSE (STUDY DURATION: 32 WK), Route [Inhibitor]: ORAL, Target Tissue: Type of Lesion: URINARY BLADDER: PAPILLOMA, Dose [Carcinogen]: 1000 MG/KG BW DHPN IP 2X/3 WK, 1500 MG/KG BW EHEN IP 2X/3 WK, 75 MG/KG BW DMAB SC 3X/3 WK;, Dose [Carcinogen]: 1000 MG/KG BW DHPN IP 2X/3 WK, 1500 MG/KG BW EHEN IP 2X/3 WK, 75 MG/KG BW DMAB SC 3X/3 WK;, Promoter: NONE): 0/14 (0%), 6/12 (50%), -100%, p<0.01
- tumour outcome (control, treated, inhibition, significance) (Carcinogen: 2,2'-DIHYDROXY-DI-N-PROPYLNITROSAMINE, 53609-64-6, N-ETHYL-N-HYDROXYETHYL- NITROSAMINE, 13147-25-6, 3,2'-DIMETHYL-4-, Carcinogen: 2,2'-DIHYDROXY-DI-N-PROPYLNITROSAMINE, 53609-64-6, N-ETHYL-N-HYDROXYETHYL- NITROSAMINE, 13147-25-6, 3,2'-DIMETHYL-4-, Dose [Inhibitor]: 0, 2% IN DIET BEGINNING 1 WK POST LAST CARCINOGEN DOSE AND CONTINUING FOR 32 WK (STUDY DURATION: 36 WK), Route [Inhibitor]: 0RAL, Target Tissue: Type of Lesion: URINARY BLADDER: CARCINOMA, Dose [Carcinogen]: 1000 MG/KG IP DHPN 2X, 1500 MG/KG GAV EHEN 2X AND 75 MG/KG SC DMAB 3X GIVEN OVER THE INITIAL 3 WK PERIOD AT 3-4 D INTERV, Promoter: NONE USED): 1/14 (7%), 2/12 (17%), -143%, not calculated
- tumour outcome (control, treated, inhibition, significance) (Carcinogen: 2,2'-DIHYDROXY-DI-N-PROPYLNITROSAMINE, 53609-64-6, N-ETHYL-N-HYDROXYETHYL- NITROSAMINE, 13147-25-6, 3,2'-DIMETHYL-4-, Carcinogen: 2,2'-DIHYDROXY-DI-N-PROPYLNITROSAMINE, 53609-64-6, N-ETHYL-N-HYDROXYETHYL- NITROSAMINE, 13147-25-6, 3,2'-DIMETHYL-4-, Dose [Inhibitor]: 0, 2% IN DIET BEGINNING 1 WK POST LAST CARCINOGEN DOSE AND CONTINUING FOR 32 WK (STUDY DURATION: 36 WK), Route [Inhibitor]: ORAL, Target Tissue: Type of Lesion: LARGE INTESTINE: ADENOMA, Dose [Carcinogen]: 1000 MG/KG/ IP DHPN 2X, 1500 MG/KG GAV EHEN 2X AND 75 MG/KG SC DMAB 3X GIVEN OVER THE INITIAL 3 WK AT 3-4 D INTERVALS, Promoter: NONE USED): 7/14 (50%), 5/12 (42%), 16%, not calculated
- tumour outcome (control, treated, inhibition, significance) (Carcinogen: 2,2'-DIHYDROXY-DI-N-PROPYLNITROSAMINE, 53609-64-6, N-ETHYL-N-HYDROXYETHYL- NITROSAMINE, 13147-25-6, 3,2'-DIMETHYL-4-, Carcinogen: 2,2'-DIHYDROXY-DI-N-PROPYLNITROSAMINE, 53609-64-6, N-ETHYL-N-HYDROXYETHYL- NITROSAMINE, 13147-25-6, 3,2'-DIMETHYL-4-, Dose [Inhibitor]: 0, 2% IN DIET BEGINNING 1 WK POST LAST CARCINOGEN DOSE AND CONTINUING FOR 32 WK (STUDY DURATION: 36 WK), Route [Inhibitor]: ORAL, Target Tissue: Type of Lesion: LARGE INTESTINE: CARCINOMA, Dose [Carcinogen]: 1000 MG/KG IP DHPN 2X, 1500 MG/KG GAV EHEN 2X AND 75 MG/KG SC DMAB 3X GIVEN OVER THE INITIAL 3 WK PERIOD AT 3-4 D INTERV, Promoter: NONE USED): 3/14 (21%), 4/12 (33%), -57%, not calculated
- tumour outcome (control, treated, inhibition, significance) (Carcinogen: 2,2'-DIHYDROXY-DI-N-PROPYLNITROSAMINE, 53609-64-6, N-ETHYL-N-HYDROXYETHYL- NITROSAMINE, 13147-25-6, 3,2'-DIMETHYL-4-, Carcinogen: 2,2'-DIHYDROXY-DI-N-PROPYLNITROSAMINE, 53609-64-6, N-ETHYL-N-HYDROXYETHYL- NITROSAMINE, 13147-25-6, 3,2'-DIMETHYL-4-, Dose [Inhibitor]: 0, 2% IN DIET BEGINNING 1 WK POST LAST CARCINOGEN DOSE AND CONTINUING FOR 32 WK (STUDY DURATION: 36 WK), Route [Inhibitor]: ORAL, Target Tissue: Type of Lesion: LIVER: HEPATOCELLULAR CARCINOMA, Dose [Carcinogen]: 1000 MG/KG IP DHPN 2X, 1500 MG/KG GAV EHEN 2X AND 75 MG/KG SC DMAB 3X GIVEN OVER THE INITIAL 3 WK AT 3-4 D INTERVALS, Promoter: NONE USED): 6/14 (43%), 1/12 (8%), 81%, not calculated
- tumour outcome (control, treated, inhibition, significance) (Carcinogen: 2,2'-DIHYDROXY-DI-N-PROPYLNITROSAMINE, 53609-64-6, N-ETHYL-N-HYDROXYETHYL- NITROSAMINE, 13147-25-6, 3,2'-DIMETHYL-4-, Carcinogen: 2,2'-DIHYDROXY-DI-N-PROPYLNITROSAMINE, 53609-64-6, N-ETHYL-N-HYDROXYETHYL- NITROSAMINE, 13147-25-6, 3,2'-DIMETHYL-4-, Dose [Inhibitor]: 0, 2% IN DIET BEGINNING 1 WK POST LAST CARCINOGEN DOSE AND CONTINUING FOR 32 WK (STUDY DURATION: 36 WK), Route [Inhibitor]: ORAL, Target Tissue: Type of Lesion: LUNG: ADENOMA, Dose [Carcinogen]: 1000 MG/KG IP DHPN 2X, 1500 MG/KG GAV EHEN 2X AND 75 MG/KG SC DMAB 3X GIVEN OVER THE INITIAL 3 WK PERIOD AT 3-4 D INTERV, Promoter: NONE USED): 7/14 (50%), 9/12 (75%), -50%, not calculated
